According to US5326766A, “4-(2-(4-(2-pyridinyloxy)phenyl)ethoxy)quinazoline and analogues thereof” (priority 1992, dated 1994):

Assays:
[1] = system: Pyricularia oryzae (rice blast); experiment: whole plant or invertebrate; type: in vivo; settings: foliar spray, 400 ppm (+++: 100 ppm); for PYRIOR disease control: host rice; for pest or weed control at 400 µg/mL: Pyricularia oryzae, foliar, read-out: PYRIOR disease control, host rice
[2] = system: aster leafhopper (Macrosteles fascifrons); experiment: whole plant or invertebrate; type: in vivo; settings: for ALH percent mortality / mortality at 400 ppm: 400 ppm; for ALH percent mortality: 24 hours, 1440 min; for mortality at 50 ppm / mortality at 400 ppm: Macrosteles fascifrons, 24 h, read-out: ALH percent mortality
Summary of the method: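 Compounds were formulated in water with Tween 20 and acetone/EtOH and tested at 400 and 50 ppm. Percent mortality was scored after 24 h at room temperature.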

[3] = system: beet armyworm (Spodoptera exiqua); experiment: Activity against beet armyworm; type: in vivo; settings: 6 days; for BAW activity (rated on live and dead larvae and size of live larvae) / pest or weed control at 400 ppm: 400 ppm; for pest or weed control at 50 ppm / pest or weed control at 400 ppm: Spodoptera, 144 h, read-out: BAW activity (rated on live and dead larvae and size of live larvae)
Summary of the method: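 Compounds formulated in acetone/EtOH with aqueous 0.05% Tween 20, tested at 400 and 50 ppm. Half-strength lepidopteran agar diet cups carrying 35-40 beet armyworm eggs sprayed through a flat-fan nozzle, dried, sealed and held 6 days at room temperature. Rated by live and dead larval counts and live larval size.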

[4] = system: Southern corn rootworm (Diabrotica undecimpuctata howardi Barber); experiment: whole plant or invertebrate; type: in vivo; settings: 400 ppm, soil concentration of 24 ppm, 3-4 days, read-out: SCRW mortality
Procedure: (§1) The compounds identified in Table I were tested for miticidal and insecticidal activity against eight species. The following abbreviations are used in the Table III:
SCRW refers to southern corn rootworm
(§2) In conducting evaluations of insecticidal activity, each test compound was formulated as a 400 ppm solution, and this solution was then diluted with water to give lesser concentrations. The 400 ppm solution was prepared by combining 19.2 mL of 0.05% solution of Tween 20 (polyoxyethylene (20) sorbitan monolaurate) in water with a solution of 8 mg of the compound in 0.8 mL of acetone/EtOH (9/1).
Activity on Southern corn rootworm (Diabrotica undecimpuctata howardi Barber) was evaluated by adding one mL of test solution containing a predetermined concentration of test compound to a cup containing a kernel of corn in 16 g of sterile soil. This produces a soil concentration of 24 ppm. After 1.5 to 2 hours of drying, five 4th instar corn rootworm larvae were added to the individual cups. Mortality was measured at 3-4 days by emptying the cup onto a pan and inspecting the soil for live rootworms.

[5] = system: tobacco budworm (Heliothis virescens); experiment: Activity against tobacco budworm; type: in vivo; settings: 6 days; for TBW activity (rated on live and dead larvae and size of live larvae) / pest or weed control at 400 ppm: 400 ppm
Summary of the method: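 Compounds formulated in acetone/EtOH with aqueous Tween 20 and sprayed at 400 and 50 ppm onto half-strength lepidopteran diet cups seeded 1 h earlier with 18–20 eggs. After 6 days at room temperature, activity rated from live and dead larval counts and live larva size.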

[6] = system: German cockroach (Blattella germanicus); experiment: whole plant or invertebrate; type: in vivo; settings: 240 h, ten days, read-out: GECR activity (rated on live and dead insects)
Procedure: as §1
GECR refers to German cockroach
as §2
Activity against German cockroach (Blattella germanicus) was evaluated as follows. 8 mL of alfalfa based green insect diet material was dispensed into a one ounce diet cup. The cups were then sprayed with formulated material through a flat-fan nozzle. The test was run using concentrations of 400 ppm and 50 ppm. Treated cups were air dried for 24 hours and infested with five late third or early fourth instar German cockroaches. The cups were capped and held for ten days in an environmental growth chamber at a temperature of […]. Activity was then rated based on the total number of live and dead insects.

[7] = system: cotton aphid (Aphis gossypii); settings: 400 ppm, squash plants, three days after treatment, 4320 min
[8] = system: two spotted spider mite (Tetranychus urticae); settings: 400 ppm, squash plants, three days after treatment, 4320 min
[9] = system: Plasmopara viticola (downy mildew); experiment: Foliar spray fungicide test, Plasmopara viticola (downy mildew) on grape; settings: for pest or weed control at 400 µg/mL: Plasmopara viticola, foliar, read-out: PLASVI disease control
[10] = system: Leptosphaeria nodorum (glume blotch); experiment: Foliar spray fungicide test, Leptosphaeria nodorum (glume blotch) on wheat; settings: for LETPNO disease control: host wheat, 400 ppm (+++: 100 ppm); for pest or weed control at 400 µg/mL: Parastagonospora nodorum, in Triticum aestivum, foliar, read-out: LETPNO disease control, host wheat, 400 ppm (+++: 100 ppm)
[11] = system: Puccinia recondita tritici (leaf rust); experiment: Foliar spray fungicide test, Puccinia recondita tritici (leaf rust) on wheat; settings: for PUCCRT disease control: host wheat, 400 ppm (+++: 100 ppm); for pest or weed control at 400 µg/mL: Puccinia recondita, in Triticum aestivum, foliar, read-out: PUCCRT disease control, host wheat, 400 ppm (+++: 100 ppm)
[12] = system: Erysiphe graminis tritici (powdery mildew); experiment: Foliar spray fungicide test, Erysiphe graminis tritici (powdery mildew) on wheat; settings: for ERYSGT disease control: host wheat, 400 ppm (+++: 100 ppm); for pest or weed control at 400 µg/mL: Blumeria graminis, in Triticum aestivum, foliar, read-out: ERYSGT disease control, host wheat, 400 ppm (+++: 100 ppm)
Procedure: The test compounds were formulated for application by dissolving 50 mg of the compound into 1.25 ml of solvent. The solvent was prepared by mixing 50 ml of "Tween 20" (polyoxyethylene (20) sorbitan monolaurate emulsifier) with 475 ml of acetone and 475 ml of ethanol. The solvent/compound solution was diluted to 125 ml with deionized water. The resulting formulation contains 400 ppm test chemical. Lower concentrations were obtained by serial dilution with the solvent-surfactant mixture.
The formulated test compounds were applied by foliar spray. The following plant pathogens and their corresponding plants were employed.
The formulated technical compounds were sprayed on all foliar surfaces of the host plants to past run-off. Single pots of each host plant were placed on raised, revolving pedestals in a fume hood. Test solutions were sprayed on all foliar surfaces. All treatments were allowed to dry and the plants were inoculated with the appropriate pathogens within 24 hours.
The effectiveness of test compounds in controlling disease was rated using the following scale.

[13] = system: Southern corn rootworm (Diabrotica undecimpuctata howardi Barber); experiment: whole plant or invertebrate; type: in vivo; settings: 3-4 days, read-out: SCRW mortality
[14] = system: cotton aphid (Aphis gossypii); experiment: whole plant or invertebrate; settings: 72 h; for mortality at 50 ppm: read-out: CA activity (percent based on aphids present in plants sprayed with solvent alone), 50 ppm, squash plants, three days after treatment; for mortality at 400 ppm: read-out: CA activity (percent based on aphids present in plants sprayed with solvent alone), 400 ppm, squash plants, three days after treatment
[15] = system: two spotted spider mite (Tetranychus urticae); experiment: whole plant or invertebrate; settings: 72 h; for mortality at 400 ppm: read-out: TSSM activity (percent based on mites present in plants sprayed with solvent alone), 400 ppm, squash plants, three days after treatment
[16] = Heliothis virescens, 144 h, read-out: TBW activity (rated on live and dead larvae and size of live larvae)

## Fc1cccc2c(OCCc3ccc(Oc4nc(Cl)c(Cl)cc4Cl)cc3)ncnc12 [Compound 44]
[1]
  PYRIOR disease control: + (20-89% control at 400 ppm)
[2]
  ALH percent mortality: 0%
[3]
  BAW activity (rated on live and dead larvae and size of live larvae): 100
[4]
  mortality at 24 ppm: 100%
[5]
  TBW activity (rated on live and dead larvae and size of live larvae): 100
[6]
  mortality at 400 ppm: 20%
[7]
  CA activity (percent based on aphids present in plants sprayed with solvent alone): 100%
[8]
  TSSM activity (percent based on mites present in plants sprayed with solvent alone): 50%
[9]; host grape, foliar spray, 400 ppm (+++: 100 ppm)
  PLASVI disease control: + (20-89% control at 400 ppm)
[10]
  LETPNO disease control: + (20-89% control at 400 ppm)
[11]
  PUCCRT disease control: +++ (90-100% control at 100 ppm)
[12]
  ERYSGT disease control: +++ (90-100% control at 100 ppm)

## Fc1cccc2c(OCCc3ccc(Oc4nc(Cl)c(Cl)cc4Cl)cc3)ncnc12 [Compound 42]
[1]
  PYRIOR disease control: - (0-19% control at 400 ppm)
[2]
  ALH percent mortality: 60%
[3]
  BAW activity (rated on live and dead larvae and size of live larvae): 0
[5]
  TBW activity (rated on live and dead larvae and size of live larvae): 0
[7]
  CA activity (percent based on aphids present in plants sprayed with solvent alone): 0%
[8]
  TSSM activity (percent based on mites present in plants sprayed with solvent alone): 0%
[9]
  pest or weed control at 400 µg/mL: 20 to 89%
[10]
  LETPNO disease control: - (0-19% control at 400 ppm)
[11]
  PUCCRT disease control: + (20-89% control at 400 ppm)
[12]
  ERYSGT disease control: - (0-19% control at 400 ppm)

## Fc1cccc2c(OCCc3ccc(Oc4ccc(C(F)(F)F)cn4)cc3)ncnc12 [Compound 27, 8-Fluoro-4-(2-(4-(5-(trifluoromethyl)-2-pyridinyloxy)phenyl)ethoxy)quinazoline]
[1]
  pest or weed control at 400 µg/mL: 90 to 100%
[2]
  mortality at 50 ppm: 100%
  mortality at 400 ppm: 100%
[3]
  pest or weed control at 50 ppm: 100%
  pest or weed control at 400 ppm: 100%
[4]
  mortality at 24 ppm: 100%
[5]; [16]
  pest or weed control at 400 ppm: 100%
[13]
  mortality at 50 ppm: 100%
[14]
  mortality at 50 ppm: 90%
  mortality at 400 ppm: 100%
[15]
  mortality at 400 ppm: 100%
[9]
  pest or weed control at 400 µg/mL: 90 to 100%
[10]
  pest or weed control at 400 µg/mL: 0 to 19%
[11]
  pest or weed control at 400 µg/mL: 90 to 100%
[12]
  pest or weed control at 400 µg/mL: 90 to 100%

## c1ccc2c(OCCc3ccc(Oc4cnccn4)cc3)ncnc2c1 [Compound 51]
[1]
  pest or weed control at 400 µg/mL: 90 to 100%
[2]
  mortality at 50 ppm: 100%
  mortality at 400 ppm: 100%
[3]
  pest or weed control at 50 ppm: 100%
  pest or weed control at 400 ppm: 100%
[4]
  mortality at 24 ppm: 100%
[5]; Heliothis virescens, 144 h, 50 ppm, read-out: TBW activity (rated on live and dead larvae and size of live larvae)
  pest or weed control at 50 ppm: 100%
[5]; [16]
  pest or weed control at 400 ppm: 100%
[6]; 50 ppm
  mortality at 50 ppm: 0%
[6]
  mortality at 400 ppm: 0%
[13]
  mortality at 50 ppm: 0%
[14]
  mortality at 50 ppm: 0%
  mortality at 400 ppm: 0%
[15]; read-out: TSSM activity (percent based on mites present in plants sprayed with solvent alone), 50 ppm, squash plants, three days after treatment
  mortality at 50 ppm: 0%
[15]
  mortality at 400 ppm: 0%
[9]
  pest or weed control at 400 µg/mL: 90 to 100%
[10]
  pest or weed control at 400 µg/mL: 90 to 100%
[11]
  pest or weed control at 400 µg/mL: 0 to 19%
[12]
  pest or weed control at 400 µg/mL: 90 to 100%
